Two compounds from publication PMC5505244, “Crystal structure of a family 6 cellobiohydrolase from the basidiomycete Phanerochaete chrysosporium” (Acta Crystallographica. Section F, Structural Biology …, 2017) can be followed below.

For assay [1], the target named is T1, PcCel6A (Phanerodontia chrysosporium, UniProt Q02321).
T1 construct: gene cbhII; catalytic domain only; N-terminal CBM and linker (residues 1-81) deleted; pPICZalpha vector, secreted from Pichia pastoris; about 37 kDa; nonglycosylated in crystal; model residues 82-439; one molecule in asymmetric unit
As to the kind of experiment: hydrolysis in crystal soak, inferred from bound product in X-ray structure. The format is biochemical. As to conditions: pH 5.0, 10 h soak; intact compound not seen in the structure.

For assay [2], the target named is T1, PcCel6A. As to the kind of experiment: X-ray crystal structure, […] Å. The format is binding. As to conditions: crystal soaked with pNPG3 for 10 h, pH 5.0; active site, subsites +1 and +2; loops closed; putative Tris at subsite -1.

T1 sequence (Q02321 entry or part of it): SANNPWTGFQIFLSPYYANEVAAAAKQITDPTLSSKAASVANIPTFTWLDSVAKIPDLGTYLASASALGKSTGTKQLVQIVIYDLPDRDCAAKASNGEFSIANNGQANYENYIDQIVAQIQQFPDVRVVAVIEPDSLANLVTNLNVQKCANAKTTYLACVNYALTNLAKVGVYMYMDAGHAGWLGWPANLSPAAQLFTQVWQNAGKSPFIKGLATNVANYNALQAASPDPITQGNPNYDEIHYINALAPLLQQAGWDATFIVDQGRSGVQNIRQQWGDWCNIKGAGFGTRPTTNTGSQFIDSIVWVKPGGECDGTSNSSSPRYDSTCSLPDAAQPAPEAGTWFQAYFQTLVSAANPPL

In the case of `O=[N+]([O-])c1ccc(O[C@@H]2O[C@H](CO)[C@@H](O[C@@H]3O[C@H](CO)[C@@H](O[C@@H]4O[C@H](CO)[C@@H](O)[C@H](O)[C@H]4O)[C@H](O)[C@H]3O)[C@H](O)[C@H]2O)cc1` [p-nitrophenyl β-D-cellotrioside], the “hydrolysis in crystal soak, inferred from bound product in X-ray structure” value in assay [1] is given as “The observed α-cellobiose is considered to be a product of the hydrolysis of pNPG3”. As for `OC[C@H]1O[C@@H](O[C@H]2[C@H](O)[C@@H](O)[C@@H](O)O[C@@H]2CO)[C@H](O)[C@@H](O)[C@@H]1O` [α-cellobiose], the “X-ray crystal structure, 2.1 Å” value in assay [2] was “The ligand-bound structure obtained from the pNPG3-soaked crystal contained one α-cellobiose molecule”.
